Assay results reported in PubChem BioAssay AID256 (DTP/NCI, 2004).
Toxic doses and inconclusive results are not listed. Rule for the calls: active = survival T/C of 150% or more; inactive = T/C below 125% in these data.

Tested on: CD2F1 mice, L1210 leukemia ip, survival T/C
Test: NCI In Vivo Anticancer Drug Screen. Data for tumor model L1210 Leukemia (intraperitoneal) in CD2F1 (CDF1) mice
Details: endpoint: mean survival time, higher = longer survival
How it was run: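 In this screen, transplantable tumors were grown in mice given either the compound or its vehicle. Results were expressed as the treated measurement relative to the control measurement.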

[1] = dose: 100.0 mg/kg/injection, schedule: Q04DX003 (ip), vehicle: saline
[2] = dose: 200.0 mg/kg/injection, schedule: Q04DX003 (ip), vehicle: saline
[3] = dose: 50.0 mg/kg/injection, schedule: Q01DX009 (ip), vehicle: saline with Tween-80
[4] = dose: 100.0 mg/kg/injection, schedule: Q01DX009 (ip), vehicle: saline with Tween-80
[5] = dose: 200.0 mg/kg/injection, schedule: Q01DX009 (ip), vehicle: saline with Tween-80
[6] = dose: 100.0 mg/kg/injection, schedule: Q04DX003 (ip), vehicle: saline with Tween-80
[7] = dose: 200.0 mg/kg/injection, schedule: Q04DX003 (ip), vehicle: saline with Tween-80
[8] = dose: 400.0 mg/kg/injection, schedule: Q04DX003 (ip), vehicle: saline with Tween-80
[9] = dose: 400.0 mg/kg/injection, schedule: Q01DX009 (ip), vehicle: saline with Tween-80

Measured: T/C

O=C(O)CSc1ccccc1
inactive: dose: 25.0 mg/kg/injection, schedule: Q04DX003 (ip), vehicle: other 98 % of control | dose: 50.0 mg/kg/injection, schedule: Q04DX003 (ip), vehicle: other 98 % of control | [1] 100 % of control | [2] 98 % of control

CS(=N)(=O)c1ccccc1 (stereo not given)
inactive: [1] 105 % of control | [2] 103 % of control | dose: 400.0 mg/kg/injection, schedule: Q04DX003 (ip), vehicle: saline 94 % of control

CCCCNc1cc(Nc2ccc(Br)cc2)nc(N)n1
inactive: [3] 98 % of control | [4] 97 % of control | [5] 98 % of control

CCCCc1ccc(N/C(N)=N/c2nc(C)cc(=O)[nH]2)cc1
inactive: [6] 98 % of control | [7] 98 % of control | [8] 92 % of control

O=C(O)Cc1ccc(Cl)cc1
inactive: dose: 75.0 mg/kg/injection, schedule: Q01DX009 (ip), vehicle: saline with Tween-80 96 % of control | dose: 150.0 mg/kg/injection, schedule: Q01DX009 (ip), vehicle: saline with Tween-80 102 % of control | dose: 300.0 mg/kg/injection, schedule: Q01DX009 (ip), vehicle: saline with Tween-80 88 % of control

CN(C)CCSCC(=O)N1c2ccccc2Sc2ccc(Cl)cc21
inactive: [3] 103 % of control | [4] 101 % of control | [6] 98 % of control | [7] 98 % of control

CCCC(=O)/C=C\c1ccccc1
inactive: dose: 50.0 mg/kg/injection, schedule: Q04DX002 (ip), vehicle: saline with Tween-80 102 % of control | dose: 100.0 mg/kg/injection, schedule: Q04DX002 (ip), vehicle: saline with Tween-80 102 % of control | dose: 200.0 mg/kg/injection, schedule: Q04DX002 (ip), vehicle: saline with Tween-80 91 % of control | dose: 400.0 mg/kg/injection, schedule: Q04DX002 (ip), vehicle: saline with Tween-80 94 % of control

N/C(=N/O)c1cn(C2OC(CO)C(O)C2O)c2nc[nH]c(=O)c12 (stereo not given)
inactive: dose: 75.0 mg/kg/injection, schedule: Q01DX001 (ip), vehicle: water 119 % of control

COC(=O)/C=C/c1ccc(OC(=O)c2ccccc2)cc1
inactive: [4] 95 % of control | [5] 96 % of control | [9] 98 % of control

CC(Sc1ccccc1)C(=O)O (stereo not given)
inactive: dose: 100.0 mg/kg/injection, schedule: Q01DX001 (ip), vehicle: saline 98 % of control | dose: 200.0 mg/kg/injection, schedule: Q01DX001 (ip), vehicle: saline 102 % of control | dose: 400.0 mg/kg/injection, schedule: Q01DX001 (ip), vehicle: saline 98 % of control

CCCCCCCCCCCC(=O)Nc1ccc(C(C)C)cc1
inactive: [6] 97 % of control | [7] 96 % of control

C/C(=C\Cl)COC(C)(C)C
inactive: [3] 98 % of control | [4] 93 % of control | dose: 100.0 mg/kg/injection, schedule: Q04DX003 (ip), vehicle: acetone 101 % of control | [5] 98 % of control | dose: 200.0 mg/kg/injection, schedule: Q04DX003 (ip), vehicle: acetone 93 % of control

Nc1cc(S(=O)(=O)c2ccc(N3CCCCC3)c(N)c2)ccc1N1CCCCC1
inactive: [4] 110 % of control | [5] 113 % of control

N#CC(C#N)=C1CCNc2ccccc21
inactive: [4] 96 % of control | [6] 101 % of control | [5] 94 % of control | [7] 103 % of control | [9] 90 % of control | [8] 97 % of control

O=C(O)c1cc(Br)c(-c2c(Br)cc(C(=O)O)cc2[N+](=O)[O-])c([N+](=O)[O-])c1
inactive: [4] 98 % of control | [6] 86 % of control | [5] 100 % of control | [7] 94 % of control | [8] 91 % of control

CCC1(C)CCC2=C(CCC3C(C)(C(=O)OC)CCCC23C)C1 (stereo not given)
inactive: dose: 100.0 mg/kg/injection, schedule: Q01DX001 (ip), vehicle: saline with Tween-80 93 % of control | dose: 200.0 mg/kg/injection, schedule: Q01DX001 (ip), vehicle: saline with Tween-80 89 % of control | dose: 400.0 mg/kg/injection, schedule: Q01DX001 (ip), vehicle: saline with Tween-80 89 % of control

CCCCCCCC(=O)Nc1cc(C(F)(F)F)ccc1Cl
inactive: [4] 93 % of control | [5] 96 % of control | [9] 94 % of control

CCOC(=O)C(=CN1CCCCCC1)C(=O)OCC
inactive: [4] 94 % of control | [5] 89 % of control | [9] 94 % of control
